From US20110294728A1, “Antiviral Polypeptides” (priority 2008, published 2011)
Read-outs that look alike come from different tables or passages of the source. Where no end group is shown, it is not given here.

How the values were obtained:
[1] = target: T1, HIV-1 RT (Human immunodeficiency virus type 1 group M subtype B, UniProt P12497); test: RT pull-down with peptide-CNBr Sepharose beads, H9 cell lysates; format: binding; settings: Western blotting
T1 construct: asymmetric heterodimer that consists of two subunits, p66 and p51; expressed in transfected cells; host or cells: H9 cells (ATCC HTB-176) stably transfected with pNL4.3 V-R+
Procedure: For RT pull down experiments, PAW (SEQ ID NO: 18) was incubated with 500 μl of activated CNBr-activated Sepharose 4B beads at 4° C. overnight. After centrifugation, supernatants were removed and the beads were incubated with Glycine pH.8.0 for 2 hrs at 4° C. with gentle stirring. The beads were then washed with 0.1 M sodium acetate buffer (pH 4.0), then 0.5 M Bicarbonate buffer, and finally in PBS, three times each. The peptide bound to the beads were then saturated for 30 min in PBS/BSA 0.1% and then incubated for 1 h at 4° C. with equal amounts of H9 cells lysed for […] on ice in Lysis buffer (Tris 20 mM, pH 7.2, NaCl 400 mM, EDTA 1 mM, DTT 1 mM, Protease inhibitors EDTA free) and sonicated 2×5 sec. at 20%. Beads were washed with Lysis buffer then twice with PBS and the bound proteins were finally separated on 15% SDS-PAGE gel and analyzed by Western Blotting using monoclonal 8C4 anti-HIV-1 RT antibody.

[2] = system: HeLa cells; test: Cellular uptake of FITC-labelled peptide, fluorescence microscopy; format: cell-based; settings: for entry of free peptide into cells: peptide alone, without Pep-1
Procedure: HeLa cells were cultured in Dulbecco's modified Eagle's medium (DMEM) supplemented with 10% fetal calf serum at 37° C. in a humidified atmosphere containing 5% CO2.). H9 cell lines (ATCC number: HTB-176) were stably transfected with pNL4.3 V−R+plasmid (AIDS Research Reference Reagent Program, National Institutes of Health (NIH), USA) and therefore expressed in a constitutive manner all HIV-1 proteins but Env encoded proteins. They were cultured in RPMI-1640 medium supplemented with 2 mM glutamine, 10% (w/v) foetal calf serum (FCS), 1% antibiotics (streptomycin […], penicillin, 10 000 IU/ml), as well as G418 1 mg/ml. Cells were grown on glass coverslips to 75% confluency, then transfected with pcDNA3-p66RT plasmid (this plasmid contains the 66 subunit of HIV-1 Reverse Transcriptase cloned in pcDNA3.1 (+) vector (Invitrogen, USA), using HindIII and BamHI restriction site) using Lipofectamine 2000 reagent according to manufacturer' instructions (Invitrogen). Hela cells were subsequently cultured for 32 h, before incubation with FITC-PAW or FITC-PAW/Pep-1 (complex obtained at a molar ratio 1/10) for 1 h. Coverslips were extensively rinsed with PBS and cells were fixed in 4% paraformaldehyde for […] and permeabilized in 0.2% Triton. After saturation in PBS supplemented with bovine serum albumine 1% for 1 h, cells were incubated overnight with monoclonal 8C4 anti-HIV-1 RT antibody (AIDS Research Reference Reagent Program, NIH) (diluted 1:100 in PBS-BSA 1%), followed by Alexa-555 anti-mouse (Molecular Probes).
Immunofluorescence detection of HIV-1 RT and FITC-PAW was performed by epifluorescence microscopy using a PL APO 1.4 oil PH3 objective on a LEICA DMRA 1999 microscope. 3D reconstitution of the 20 frames realized from z stacking was performed using Imaris 6.0 software.
Cells were grown on acid-treated glass coverslips to 60% confluence. Once rinsed with PBS, cells were overlaid with preformed complexes and incubated for 40 minutes at 37° C. Cells were then rinsed twice with PBS and fixed […] at Room Temperature) (RT° in Paraformaldehyde 4%, and washed three times in PBS+2% BSA. They were then permeabilised by incubation 10 min RT° in PBS+0.5% Triton X-100, washed again 3 times in PBS+2% BSA. After blocking 20 min in the same solution, the coverslips were placed in a humid chamber, overlaid with 75 μl of primary antibody against Integrase, and incubated for 2 h at 37° C. Coverslips were then rinced once with PBS and incubated with 75 μl of anti rabbit antibody diluted 1/10000 in PBS. After immobilisation on the cover using Prolong Gold antifade reagent, cellular localization of Integrase as well as FITC-labelled peptides was monitored by fluorescence microscopy, using a PL APO 1.4 oil PH3 objective on a LEICA DMRA 1999 microscope. […]

[3] = target: T2, HIV-1 RT (Human immunodeficiency virus type 1 group M subtype B, UniProt P03366); test: biochemical
T2 construct: The heterodimeric p66/p51 RT was eluted with an imidazole gradient; p66 and p51 derived from p66 by proteolytic cleavage of the C-terminal RNAse H domain; made in house; host or cells: E. coli (M15 for the His-tagged subunits)
Procedure: RNA-dependent-DNA RT-polymerase activity was measured in a standard reaction assay using poly(rA)-(dT)15 as template/primer as described in Restle et al. (1990). Ten microliters of reverse transcriptase (RT) at 20 nM was incubated at 37° C. for 30 min with 20 μL of reaction buffer (50 mM Tris, pH 8.0, 80 mM KCl, 6 mM MgCl2, 5 mM DTT, 0.15 μM poly(rA-dT), 15 μM dTTP, 0.3 μCi 3H-dTTP). For peptide evaluation, HIV-1 RT was incubated with increasing concentrations of peptide inhibitors for […], and polymerase reaction was initiated by adding reaction buffer. Reactions were stopped by precipitation of nucleic acids with 5 ml of 20% trichloroacetic acid (TCA) solution for 2 h on ice, then filtered using a multiwell-sample collector (Millipore), and washed with 5% TCA solution. Filters were dried at 55° C. for 30 min and radionucleotide incorporation was determined by liquid scintillation spectrometry.
A series of peptides have been derived from Pep-A sequence (SEQ ID NO: 28), which is derived from HIV-1 reverse transcriptase. First, P1 peptide (SEQ ID NO: 1) was obtained by removing the N-terminal arginine of Pep-A. Then, additional peptides were generated by performing an alanine scan on P1. P1-derived peptides were evaluated using a standard polymerase RT assay. Reported data correspond to the mean of three separate experiments.

[4] = system: uninfected PHA-P-activated PBMC; test: Cytotoxicity, MTT assay in uninfected PBMC; format: cell-based
Procedure: The anti-HIV activities of the peptides were assayed according to the methods described in Roisin et al. (2004). Phytohemagglutinin-P(PHA-P)-activated peripheral blood mononuclear cells (PBMC) treated by increasing concentrations of peptide (from 100 to 0.1 nM), one hour later, were infected with hundred 50% tissue culture infectious doses (TCID50) per 100,000 cells of the HIV-1-LAI strain (Barre-Sinoussi et al., 1983). This virus was amplified in vitro on PHA-P-activated PBMC. Viral stock was titrated using PHA-P-activated PBMC, and 50% TCID50 were calculated using Kärber's formula (Kärber, 1931). Samples were maintained throughout the culture, and cell supernatants were collected at day 7 post-infection and stored at −20° C. Viral replication was measured by quantifying reverse transcriptase (RT) activity in cell culture supernatants. In parallel, cytotoxicity of the compounds was evaluated in uninfected PHA-P-activated PBMC by colorimetric 3-(4-5 dimethylthiazol-2-yl)2,5diphenyl tetrazolium bromite (MTT) assay on day 7 (as described in Mossmann, 1983). Experiments were performed in triplicate and repeated with another blood donor. […]

[5] = target: T2, HIV-1 RT; test: RT dissociation kinetics with bis-ANS, stopped flow; settings: read-out: dissociation rate constant kdis of RT
Procedure: Dissociation kinetics of HIV-1 RT were monitored by using 4,4′-Bis(1-anilinonaphthalene 8-sulfonate (bis-ANS) as extrinsic probe. Changes in bis-ANS fluorescence provide a good signal to probe variation in the exposure of the hydrophobic regions associated to RT dissociation in a time-dependent manner. 0.5 μM of RT was dissociated in presence of 0.8 μM of bis-ANS, by adding 10% acetonitrile in the absence or in the presence of 10 μM PAW. Kinetics of dissociation were monitored by following fluorescence resonance energy transfer between tryptophan residues of RT and bis-ANS. Excitation of RT-Trp residues was performed at 290 nm and the increase of bis-ANS fluorescence emission at 490 nm was detected through a 420 nm cut-off filter. Data acquisition and analysis were performed using KinetAsyst 3 software (Hi-Tech Scientific, Salisbury, England-UK) and traces were fitted according to a single exponential equation.

[6] = target: T3, HIV-1 integrase (Human immunodeficiency virus type 1 group M subtype B, UniProt P04585); test: IN 3′-processing activity, gel-electrophoresis procedure; format: biochemical; settings: read-out: IC50 3′-proc
T3 construct: Integrase is a 32 kDA viral protein that is biologically active under a multimeric form
Procedure: In order to verify the influence of the fluorescent probe attached to PAW on the peptide-integrase interaction, a standard gel-electrophoresis procedure (as described in Smolov et al., 2006) was carried out to examine the IN 3′-processing activity as a function of either unlabeled or fluorescein-labeled PAW concentration.

[7] = target: T4, heterodimeric RT (Human immunodeficiency virus type 1 group M subtype B, UniProt P03366); test: Steady-state fluorescence titration of FITC-PAW with RT; set-up: species or system HIV-1; settings: 200 nM FITC-PAW titrated with RT; read-out: dissociation constant (Kd), binding to heterodimeric RT
T4 construct: The heterodimeric p66/p51 RT was eluted with an imidazole gradient; p66 and p51 derived from p66 by proteolytic cleavage of the C-terminal RNAse H domain; made in house; host or cells: E. coli (M15 for the His-tagged subunits)
Procedure: (§1) Fluorescence experiments were performed in buffer containing 50 mM Tris-HCl, pH 8.0, 50 mM KCl, 10 mM MgCl2 and 1 mM DTT, at 25° C., using a SPEX-PTI spectrofluorimeter in a 1 cm path-length quartz cuvette, with a band-pass of 2 nm for excitation and emission, respectively. Excitation was performed at 492 nm and emission spectra were recorded from 500 to 600 nm. According fluorescence experiments, a fixed concentration of FAM-labelled (19/36) p/t (50 nM) or of FITC-PAW (200 nM) was titrated with increasing protein concentrations from 5 nM to 1 μM. Data were fitted as described in Agopian et al. (2007) and Rittinger et al. (1995), using a quadratic equation (GraFit, Erithacus Software).

[8] = target: T5, RT:p/t (Human immunodeficiency virus type 1 group M subtype B, UniProt P03366); test: Steady-state fluorescence titration, PAW binding to RT:p/t; set-up: species or system HIV-1
T5 construct: The heterodimeric p66/p51 RT was eluted with an imidazole gradient; p66 and p51 derived from p66 by proteolytic cleavage of the C-terminal RNAse H domain; made in house; host or cells: E. coli (M15 for the His-tagged subunits)
Procedure: as §1

[9] = target: T6, HIV-1 p51 (Human immunodeficiency virus type 1 group M subtype B, UniProt P03366); test: Size exclusion chromatography of p51 dimerization; settings: p51 3.5 μM, FITC-labelled PAW 20 μM, 1 h
T6 construct: His; made in house; host or cells: E. coli M15
Procedure: Chromatography was performed using one (Phenomenex 53000) or two HPLC columns in series (Phenomenex 53000 followed by Phenomenex 52000; both 7.5 mm×300 mm). Samples containing 3 to 10 μM of RT or p51 were applied onto one or two HLPC columns and eluted with 200 mM potassium phosphate (pH: 7.0) at a flow rate of 0.5 ml·min^−1 (5).

[10] = target: T7, HIV-1 integrase (Human immunodeficiency virus type 1 group M subtype B, UniProt P12497); test: Integrase pull-down with CNBr Sepharose beads; format: binding; settings: H9 or HeLa HA-IN cell lysates, western blotting
T7 construct: expressed in transfected cells; host or cells: H9 cells with pNL4.3 V-R+; HeLa cells stably expressing HA-tagged IN
Procedure: Peptides were resuspended in buffer A (1 mg/ml), sonicated 4 min, and incubated with 500 μl (gel volume) of activated CNBr-activated Sepharose 4B sepharose© beads at 4° C. overnight. After centrifugation, supernatants were removed and the beads were incubated with Glycine pH.8 for 2 hours at 4° C. with gentle stirring. The sedimented Sepharose beads were then washed in 0.1 M Sodium Acetate buffer (pH 4), 0.5 M Bicarbonate buffer, and finally in PBS, three times each. The peptides bound to the beads were then saturated for 30 minutes in PBS BSA 0.1% and then incubated for 1 h at 4° C. with equal amounts of cell lysate (H9 or Hela-IN) prealably lysed for 30 min on ice in Lysis buffer (Tris 20 mM, pH 7.2, NaCl 400 mM, EDTA 1 mM, DTT 1 mM, Protease inhibitors EDTA free (Roche Diagnostics) and sonicated twice for 5 sec. at 20%. Beads were washed once in Lysis buffer, and twice in PBS. They were finally resuspended in Laemli blue, migrated on 15% SDS-PAGE gels and analysed by Western Blotting.

GTKALTAVIPLTEEAE [Peptide P8] was tested, and the “stable complex with RT, retention of RT on beads” value [1] was “no RT was associated”, the “entry of free peptide into cells” value [2] was “not able to enter cells alone” and the Ki [3] was 57 ± 19 µM. The “reduction of efficiency of the peptide in comparison to P1” value ([3]; relative to P1) was 8 fold.

GTKWLTEWIPLTAEAE-NH2 [PAW] was tested, and the toxic effect [4] was “without any toxic effect”, the koff [5] was 1.42 ± 0.007 s⁻¹ and the “entry of free peptide into cells” value [2] was “not able to enter cells alone”.

With GTKWLTEWIPLTAEAEC-FITC [PAW-FITC] the IC50 [6] was 10000 nM, the Kd [7] was 33 ± 10 nM and the “lower Kd of labelled FITC-PAW over unlabelled peptide” value [8] was 5.6 fold. For the same substance, the Kd ([8]; FITC-PAW fluorescence quenching, read-out: Kd, FITC-PAW binding to RT first incubated with DNA/DNA p/t) was 7.1 ± 2.8 nM, the “increase of affinity for RT in the presence of p/t” value ([8]; relative to RT without p/t) was 5 fold and the “time to enter cells” value ([2]; complexed with Pep-1 at 1/10 molar ratio) was “less than 1 h”. For the same substance, the “entry of free peptide into cells” value [2] was “poorly enters”, the Ki ([3]; Dixon plot, mean of three separate experiments, read-out: Ki (μM), inhibition of polymerase activity of HIV-1 RT) was 2.7 ± 0.7 µM and the “reduction of efficiency (higher Ki) relative to PAW” value ([3]; relative to PAW) was 3.8 fold. The “p51 dimeric and associated to PAW” value [9] was 4.6%.

With “Pep-7: decapeptide (SEQ ID NO: 32) mimicking p66/p51 interface that prevents reverse transcriptase-dimerization (KETWETWWTE; Pep-7 ; described in Morris et al., 1999, JBC, 274, 24941-24946)” the “interaction with IN in pull-down” value [10] was “does not bind IN”.
